# Tested on: HT-29
# Test: Compound was tested in vitro to inhibit 50% colon carcinoma HT-29 cell growth after 72 h
# Type: functional, cell-based
# Conditions: Homo sapiens, HT-29, 72 h
smiles,measurement,value
COc1cccc2c1C(=O)c1c(O)c3c(c(O)c1C2=O)C[C@@](O)(C(=O)CO)C[C@@H]3O[C@H]1C[C@H](N)[C@H](O)[C@H](C)O1 [DOXORUBICIN],EC50,2.5 µM

# Source: ChEMBL document CHEMBL1129765, “Azonia derivatives of the -carboline system. A new class of DNA intercalators” (Bioorg Med Chem Lett, 1996)
